Data published in the supplement of paper PMC10307832.

Columns and labels:
Assay in all cases: relative viability (nuclei count vs DMSO), 5 days (fraction); higher = more cells survive
[1] = compound: C1=CC=C(C(=C1)C2=CC=C(C=C2)C3=CSC4=C3C(=C(C(=O)N4)C#N)O)O + CS(=O)(=O)CCNCc1ccc(-c2ccc3ncnc(Nc4ccc(OCc5cccc(F)c5)c(Cl)c4)c3c2)o1 [Lapatinib] (partner 2 µM)
How it was run: (§1)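 For relative viability, nuclei counts in treated wells were divided by those in vehicle wells. Lung cancer cell lines had been pin-tool dosed in 1536-well plates the day after seeding and cultured for 5 days, then fixed and stained in one step (final 0.05% Triton X-100, 1% formaldehyde, 1 ug/ml Hoechst) and imaged at 4×. Doses were one drug alone or a fixed anchor-drug dose plus five library-drug doses (not always all listed) in √10 steps, and values are duplicate-plate medians.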

[2] = compound: O=C(CCCCCCNC(=O)c1cnc(N(c2ccccc2)c2ccccc2)nc1)NO [Ricolinostat] + CS(=O)(=O)N1CCN(Cc2cc3nc(-c4cccc5[nH]ncc45)nc(N4CCOCC4)c3s2)CC1 [Pictilisib] (partner 1 µM)
How it was run: as §1

[3] = compound: O=C(CCCCCCNC(=O)c1cnc(N(c2ccccc2)c2ccccc2)nc1)NO [Ricolinostat] + CC(=O)c1c(C)c2cnc(Nc3ccc(N4CCNCC4)cn3)nc2n(C2CCCC2)c1=O [Palbociclib] (partner 0.5 µM)
How it was run: as §1

[4] = compound: O=C(CCCCCCNC(=O)c1cnc(N(c2ccccc2)c2ccccc2)nc1)NO [Ricolinostat] + Nc1ncn([C@H]2C[C@H](O)[C@@H](CO)O2)c(=O)n1 [Decitabine] (partner 2 µM)
How it was run: as §1

Row | Cell Line | relative viability ([1]; first compound 0.08 µM) | relative viability ([1]; first compound 0.253 µM) | relative viability ([1]; first compound 0.8 µM) | relative viability ([1]; first compound 2.53 µM) | relative viability ([1]; first compound 8 µM) | relative viability ([2]; first compound 0.08 µM) | relative viability ([2]; first compound 0.253 µM) | relative viability ([2]; first compound 0.8 µM) | relative viability ([2]; first compound 2.53 µM) | relative viability ([3]; first compound 0.08 µM) | relative viability ([3]; first compound 0.253 µM) | relative viability ([3]; first compound 0.8 µM) | relative viability ([3]; first compound 2.53 µM) | relative viability ([4]; first compound 0.08 µM) | relative viability ([4]; first compound 0.253 µM) | relative viability ([4]; first compound 0.8 µM) | relative viability ([4]; first compound 2.53 µM)
1 | NCI-H3122 | 1.05 | 1.17 | 1.06 | 1.06 | 1.02 | 0.533 | 0.606 | 0.696 | 0.866 | 0.149 | 0.208 | 0.186 | 0.235 | 0.388 | 0.404 | 0.443 | 0.529
2 | HCC-15 | 0.702 | 0.918 | 0.897 | 0.962 | 0.783 | 0.647 | 0.79 | 0.779 | 0.617 | 0.779 | 0.739 | 0.685 | 0.606 | 0.593 | 0.687 | 0.631 | 0.464
3 | NCI-H2009 | 1.04 | 0.933 | 0.795 | 0.886 | 0.724 | 0.498 | 0.829 | 0.757 | 0.85 | 0.164 | 0.202 | 0.222 | 0.296 | 0.376 | 0.353 | 0.35 | 0.373
4 | NCI-H23 | 1.36 | 1.09 | 1.19 | 1.08 | 0.843 | 0.381 | 0.572 | 0.475 | 0.309 | 0.532 | 0.509 | 0.448 | 0.615 | 0.325 | 0.316 | 0.319 | 0.323
5 | NCI-H1734 | 1.09 | 1.05 | 1.16 | 1.01 | 0.887 | 0.371 | 0.467 | 0.495 | 0.402 | 0.343 | 0.35 | 0.4 | 0.389 | 0.486 | 0.497 | 0.519 | 0.47
6 | NCI-H2170 | 0.267 | 0.276 | 0.278 | 0.279 | 0.286 | 0.27 | 0.315 | 0.355 | 0.287 | 0.388 | 0.405 | 0.385 | 0.354 | 0.471 | 0.454 | 0.452 | 0.482
7 | NCI-H2342 |  |  |  |  |  |  |  |  |  | 0.555 | 0.473 | 0.509 | 0.577 | 0.628 | 0.719 | 0.784 | 0.718
8 | HCC-366 | 1.24 | 0.948 | 1.24 | 1.01 | 1.01 | 0.133 | 0.17 | 0.151 | 0.198 | 0.383 | 0.335 | 0.344 | 0.257 | 0.332 | 0.344 | 0.342 | 0.329
9 | HARA |  | 1.03 | 0.821 | 0.762 | 0.738 | 0.208 | 0.481 | 0.503 | 0.203 | 0.269 | 0.288 | 0.238 | 0.248 | 0.335 | 0.408 | 0.464 | 0.405
10 | NCI-H2087 | 1.05 | 1.11 | 1.01 | 1.19 | 1.04 | 0.806 | 0.828 | 0.867 | 0.87 | 0.263 | 0.165 | 0.178 | 0.0962 | 0.23 | 0.318 | 0.24 | 0.145
11 | NCI-H1650 |  | 0.872 | 0.811 | 0.72 | 0.54 | 0.423 | 0.523 | 0.395 | 0.347 | 0.322 | 0.294 | 0.344 | 0.275 | 0.489 | 0.346 | 0.358 | 0.311
12 | NCI-H1563 | 0.715 | 0.868 | 1.01 | 0.881 | 0.989 | 0.634 | 0.674 | 0.627 | 0.732 |  |  |  |  |  |  |  | 
13 | NCI-H1666 | 0.667 | 0.826 | 0.577 | 0.427 | 0.59 | 0.445 | 0.52 | 0.378 | 0.305 | 0.741 | 0.664 | 0.644 | 0.598 | 0.71 | 0.764 | 0.758 | 0.717
14 | LCLC-103H |  |  |  |  |  | 0.456 | 0.47 | 0.583 | 0.547 | 0.472 | 0.413 | 0.495 | 0.514 | 0.726 | 0.745 | 0.76 | 0.739
15 | HOP-62 | 0.766 | 0.888 | 1.1 | 1.19 | 0.871 | 0.624 | 0.749 | 0.624 | 0.33 | 0.457 | 0.406 | 0.355 | 0.416 | 0.217 | 0.186 | 0.144 | 0.221
16 | BEN | 0.577 | 0.663 | 0.716 | 0.87 | 0.645 | 0.462 | 0.532 | 0.425 | 0.354 | 0.461 | 0.474 | 0.499 | 0.451 | 0.578 | 0.78 | 0.567 | 0.581
17 | NCI-H1299 | 0.923 | 0.929 | 0.987 | 0.961 | 0.948 | 0.77 | 0.796 | 0.784 | 0.603 |  |  |  |  |  |  |  | 
18 | UMC-11 | 0.745 | 0.871 | 0.941 | 1 | 0.858 | 0.645 | 0.859 | 0.723 | 0.24 | 0.368 | 0.338 | 0.339 | 0.295 | 0.551 | 0.543 | 0.561 | 0.417
19 | NCI-H1755 | 0.938 | 1.11 | 0.875 | 1.11 | 1.1 | 0.278 |  | 0.402 | 0.312 | 0.463 | 0.458 | 0.493 | 0.453 | 0.66 | 0.649 | 0.696 | 0.665
20 | SK-LU-1 | 0.977 | 1.1 | 0.685 | 1.05 | 0.682 | 0.478 | 0.469 | 0.423 | 0.485 | 0.4 | 0.377 | 0.377 | 0.366 | 0.607 | 0.604 | 0.638 | 0.524
21 | NCI-H1793 | 0.583 | 0.765 | 0.825 | 0.701 | 0.598 |  | 0.31 | 0.311 | 0.298 | 0.306 | 0.31 | 0.281 | 0.329 | 0.423 | 0.514 | 0.56 | 0.499
